Where no end group is shown, it is not given here.
Assays:
[1] = system: SW480 cells; experiment: LPS-stimulated migration of SW480 cells; type: cell-based, human; conditions: LPS 1.0 μg/ml; SPA4 1, 10 and 50 μM; from 24 hours till 72 hours
Protocol: Cell migration: SW480 cells were plated in 30 mm tissue-culture-treated dishes at a density of 1.0×10^6 cells per plate. At 80-90% confluence, a “reference line” was drawn at the bottom of the plate. The cells were scratched off from one side of the reference line using a rubber policeman. A picture was taken at 0 t that helped in marking the “start line”. Cells were then washed with complete medium and incubated with LPS (1.0 μg/ml) and/or SPA4 peptide (1, 10 and 50 μM). Photomicrographs of cells migrated across the “start line” were taken in different fields after each treatment at 24, 48, and 72 hours (±2 hours) following traceable inscriptions made under the plate at three different points, with a Canon digital camera. On 24, 48 and 72 hour images, a second line was drawn along the edge of cells to represent the migration of cells. Cell migration was calculated by measuring the distance cells migrated from the “start line”. Only the continuous migration of cells was considered for measurement. The islets of cells were disregarded. The cell migration was calculated using the following formula: (distance between “start line” at 0 h—“reference line”)-(distance between “72 hours line”—“reference line”).

[2] = molecular target: T1, recombinant TLR4-MD2 protein (Homo sapiens, UniProt O00206); experiment: Microwell-based binding to immobilized recombinant TLR4-MD2 protein; conditions: for binding to surface-bound TLR4-MD2 protein: 0.25 μg TLR4-MD2 per well, detected with SP-A-specific antibody
T1 construct: extracellular domain of human TLR4 protein (Glu 24-Lys 631 amino acids); 10x histidine tag (C); signal peptide from human CD33 (N); purchased R&D Systems, MN; host or cells: mouse myeloma cell line NS0
T1 sequence (O00206 24-631): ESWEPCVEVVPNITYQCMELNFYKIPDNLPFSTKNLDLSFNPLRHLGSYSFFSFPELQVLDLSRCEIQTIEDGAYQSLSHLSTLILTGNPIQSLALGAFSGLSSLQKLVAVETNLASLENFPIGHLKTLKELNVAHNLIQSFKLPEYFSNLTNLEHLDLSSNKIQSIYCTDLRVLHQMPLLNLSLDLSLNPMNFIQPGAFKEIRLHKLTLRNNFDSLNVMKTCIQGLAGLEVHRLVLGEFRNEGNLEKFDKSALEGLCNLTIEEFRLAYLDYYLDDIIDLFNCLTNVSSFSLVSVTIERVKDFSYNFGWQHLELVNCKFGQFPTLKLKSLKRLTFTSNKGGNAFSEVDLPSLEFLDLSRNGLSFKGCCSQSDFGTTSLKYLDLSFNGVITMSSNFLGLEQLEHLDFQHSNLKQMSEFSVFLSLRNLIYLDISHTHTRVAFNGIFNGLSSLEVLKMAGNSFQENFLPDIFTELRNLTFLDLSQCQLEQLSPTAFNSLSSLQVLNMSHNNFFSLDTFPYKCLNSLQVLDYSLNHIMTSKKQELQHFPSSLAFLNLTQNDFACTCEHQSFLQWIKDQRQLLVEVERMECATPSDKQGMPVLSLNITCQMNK
T1 sequence (Q9Y6Y9 17-160 partner limits assumed): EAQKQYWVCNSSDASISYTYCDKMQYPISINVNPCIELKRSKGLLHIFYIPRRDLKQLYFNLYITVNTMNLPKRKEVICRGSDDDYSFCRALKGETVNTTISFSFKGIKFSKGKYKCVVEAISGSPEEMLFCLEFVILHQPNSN
From the text: Interaction between purified baboon lung SP-A, SP-A-peptides and TLR4-MD2 proteins using a microwell-based method: The binding between the purified baboon lung SP-A, SP-A-peptides and recombinant TLR4-MD2 and MD2 proteins was studied in vitro using a microwell-based method (Awasthi et al., 2004). The soluble, recombinant TLR4-MD2 protein (R&D Systems, MN) consisted of a mixture of recombinant human-TLR4 and MD2 proteins. The recombinant extracellular domain of human TLR4 protein (Glu 24-Lys 631 amino acids), was joined with a DNA sequence encoding the signal peptide from human CD33 and a 10× histidine tag at the C-terminus (Accession # O00206). For MD2 protein, a DNA sequence encoding the signal peptide from human CD33 was joined with the mature region of human MD-2 (mature region, Glu 17-Asn 160 amino acids) and a 10× histidine tag at the C-terminus (Accession # Q9Y6Y9). The chimeric proteins were expressed in a mouse myeloma cell line, NS0 (R&D Systems, MN). The proteins were obtained from the manufacturer in carrier-free condition and reconstituted in PBS containing 0.1% low-endotoxin BSA (MP Biomedicals, OH). MD2, an adaptor molecule for TLR4, is expressed by immune cells, and is known to bind TLR4 in a non-covalent manner (Jain et al., 2008). Thus, the binding of SP-A to the recombinant MD2 protein (R&D Systems, MN) was also studied.
For the binding assay, microwell ultra-high-protein binding Immunolon 4HBX strips (Thermo Scientific, MA) were coated with soluble recombinant-TLR4-MD2 protein or MD2 protein (R&D Systems, 250 ng per well, diluted in 0.1 M NaHCO3, pH 9.6) overnight at room temperature. The plates were washed three times, and non-specific sites were blocked for 2 h at room temperature using phosphate buffered saline containing 0.1% triton-X 100 and 3% nonfat milk (Buffer A). […] The immune-complex was detected using 3,3′,5,5′-tetramethylbenzidine (TMB) substrate system (Sigma-Aldrich, MO). The reaction was stopped with 2 N H2SO4 and read at 405 and/or 450 nm spectrophotometrically (Molecular Devices, CA).

[3] = system: LPS-induced acute inflammation; experiment: Mouse model of LPS-inflammation (endotoxic shock-like symptoms, TNF-α); type: in vivo, Balb/c Mice; conditions: mice; for LPS-induced clinical symptoms (endotoxic shock-like): LPS 0.1 μg/g body weight i.p., SPA4 2.5 μg/g, SP-A 0.5 μg/g; for LPS-induced circulatory TNF-α amounts: LPS 0.1 μg/g body weight, serum, ELISA; for LPS-induced TNF-α levels in lung tissue homogenates: LPS 1 μg/g or 15 μg/g body weight, treated at 1 hour, sacrificed at 5 hours
Protocol: In Example 5, the efficacy of SPA4 peptide in inhibiting LPS-induced acute inflammation was investigated in a mouse model of LPS-inflammation. Balb/c Mice were challenged with E. coli 0111:B4 highly purified, low protein-derived LPS (0.1 or 1 or 15 μg/g body wt) via an intraperitoneal route, one hour prior to treatment with SPA4 peptide (2.5 μg/g body weight) or full-length purified SP-A (0.5 μg/g body weight) via an intraperitoneal route. The mice were monitored for endotoxic-shock like clinical symptoms (including, but not limited to, ruffled fur, eye exudates, diarrhea, prostration, and lack of reactivity), and these symptoms were scored on the basis of severity from 0 to 3, and average clinical symptom indices were calculated for each animal based on the symptom grades (Metkar et al., 2007). Endotoxic-shock like clinical symptoms were noted (at 5 or 7 hours), and mice were sacrificed at different time-intervals after LPS challenge. Major organs and blood specimens were collected. Secreted amounts of TNF-α cytokine were measured in serum and lung tissue homogenates by ELISA method.

Substance | LPS-induced migration of SW480 cells [1] | binding to surface-bound TLR4-MD2 protein [2] | efficiency of binding to TLR4-MD2 protein compared with whole native SP-A protein ([2]; SPA4 2-20 μg versus SP-A 2-10 μg) | LPS-induced clinical symptoms (endotoxic shock-like) [3] | LPS-induced circulatory TNF-α amounts [3] | LPS-induced TNF-α levels in lung tissue homogenates [3]
GDFRYSDGTPVNYTNWYRGE [SPA4, GDFRYSDGT PVNYTNWYRGE] | inhibited | binds to TLR4-MD2 protein | less efficient | inhibit | reduced | reduced
SP-A: native surfactant protein-A purified from bronchioalveolar lavage fluid of a normal healthy adult baboon (MWLCPLALTLTLMAASGAACEVKDVCVGSPGIPGTPGSHGLPGRDGRDGVKGDPGPP; listed as Papio cynocephalus) | – | showed binding | – | inhibit | reduced | low

Reference: patent US8623832B2, “Peptide compositions that bind TLR-4” (The Board of Regents of the University of Oklahoma, priority 2011, dated 2014)
